Entries after “also recorded” stand apart in the source; their conditions may differ. Where two headings read alike, the source gives them in different places. *1 amine or outer side, *2 acyl side, *3 side chain or, on linkers, in order; H or OH if unused. Where a SMILES comes first, the peptide text is derived from it. The star is where a group is joined. AMC = Cc1cc(=O)oc2cc(N*)ccc12; Suc = O=C(CCC(=O)[*:2])[*:1]; Boc = CC(C)(C)OC(=O)*; CO = O=C([*:1])[*:2]
Assays:
trypsin-like enzyme [1] = target: T1, trypsin-like enzyme (Homo sapiens, UniProt O60235); assay: Digestion of natural substrates detected by SDS-polyacrylamide gel electrophoresis; format: biochemical
T1 construct: from tissue; host or cells: cough phlegm (sputum) of patients with chronic disease of the respiratory tract
T1 sequence (O60235 187-418): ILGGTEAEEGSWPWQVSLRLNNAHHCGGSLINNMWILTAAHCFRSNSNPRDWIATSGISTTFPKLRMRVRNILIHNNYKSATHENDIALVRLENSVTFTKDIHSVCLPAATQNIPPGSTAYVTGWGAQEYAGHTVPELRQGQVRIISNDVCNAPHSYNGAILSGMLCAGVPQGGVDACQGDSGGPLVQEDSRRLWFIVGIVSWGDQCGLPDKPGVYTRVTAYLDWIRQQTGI

[2] = system: rat mast cell-derived tryptase; assay: Effect of protease inhibitors on enzymatic activity; format: biochemical
trypsin-like enzyme [3] = target: T1, trypsin-like enzyme; assay: as above; format: biochemical; settings: for inhibition at 10 µM: read-out: Inhibition (%) Trypsin-like protease (human)
[4] = target: T2, human-derived neutrophile elastase (Homo sapiens, UniProt P08246); assay: as above; format: biochemical; settings: for inhibition at 10 µM: read-out: Inhibition (%) Neutrophile elastase (human)
T2 sequence (P08246 30-267): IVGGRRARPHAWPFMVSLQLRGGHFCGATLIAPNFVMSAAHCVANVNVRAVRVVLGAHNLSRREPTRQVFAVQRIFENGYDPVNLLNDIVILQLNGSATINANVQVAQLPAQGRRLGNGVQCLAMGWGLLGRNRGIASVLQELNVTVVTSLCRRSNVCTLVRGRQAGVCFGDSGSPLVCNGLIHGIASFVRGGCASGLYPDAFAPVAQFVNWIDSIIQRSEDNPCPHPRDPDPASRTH

[5] = system: rat mast cell-derived tryptase; assay: Substrate specificity, synthetic MCA substrates; format: biochemical; settings: activity on Suc-Phe-Ser-Arg-MCA taken to be 100%
trypsin-like enzyme [6] = target: T1, trypsin-like enzyme; assay: Substrate specificity, synthetic MCA substrates (assay method of trypsin activity); format: biochemical; settings: pH 8.6, 0.1M Tris-HCl; activity on Boc-Phe-Ser-Arg-MCA taken to be 100%
[7] = target: T3, human neutrophile elastase (Homo sapiens, UniProt P08246); assay: Substrate specificity, synthetic MCA substrates; format: biochemical
T3 sequence (P08246 30-267): T2 sequence (P08246 30-267)

[8] = target: trypsin-like enzyme isolated from cough phlegm of a patient suffering from a chronic respiratory apparatus disease (human)
[9] = target: rat mast cell-derived tryptase (rat) (UniProt P27435)
[10] = target: Suc-Gly-Pro-Leu-Gly-Pro-MCA
[11] = Example 5: inhibitors 10 μM, PMSF 1 mM
[12] = pH 8.6, activity on Suc-Ala-Pro-Ala-MCA taken to be 100%

trypsin-like enzyme isolated from cough phlegm of a patient suffering from a chronic respiratory apparatus disease, sequence (O60235 187-418 limits assumed): as the sequence (O60235 187-418) above

Molecule: vasoactive intestinal peptide [VIP]
- Digestion of natural substrate by trypsin-like enzyme (trypsin-like enzyme [1]): specifically digested; also recorded: digests

Molecule: CC(C)C[C@H](NC(=O)[C@@H](O)[C@H](N)Cc1ccccc1)C(=O)O [Bestatin, bestatin]
- Inhibition (%) Tryptase (derived from rat mast cell) ([2]; inhibitor 10 μM): 23.4%
- Inhibition of trypsin-like enzyme (in words) (trypsin-like enzyme [3]; [11]): not inhibited
- inhibition at 10 µM (trypsin-like enzyme [3]; inhibitor 10 μM): 0%
- inhibition at 10 µM ([4]; inhibitor 10 μM): 15.2%

Molecule: CC[C@H](C)[C@H](NC(=O)OC(C)(C)C)C(=O)N[C@@H](CCC(N)=O)C(=O)NCC(=O)N[C@@H](CCCNC(=N)N)C(=O)Nc1ccc2c(C)cc(=O)oc2c1 [Boc-Ile-Gln-Gly-Arg-MCA] (Boc-IQGR-{AMC})
- Substrate digestion ratio (%) Rat mast cell Tryptase pH 8.6 [5]: 149.0%
- Substrate digestion ratio (%) Trypsin-like enzyme pH 8.6 (trypsin-like enzyme [6]): 13.1%
- Substrate digestion ratio (%) Neutrophile elastase pH 8.6 [7, 12]: 0.3%

Molecule: substance P
- Digestion of natural substrate by trypsin-like enzyme (trypsin-like enzyme [1]): not digested; also recorded: does not digest

Molecule: Cc1cc(=O)oc2cc(NC(=O)[C@H](C)NC(=O)[C@@H]3CCCN3C(=O)[C@H](C)NC(=O)CCC(=O)O)ccc12 [Suc-Ala-Pro-Ala-MCA] (Suc-Ala-Pro-Ala-{AMC})
- Substrate digestion ratio (%) Trypsin-like enzyme pH 8.6 (trypsin-like enzyme [6]): 0%
- Substrate digestion ratio (%) Neutrophile elastase pH 8.6 [7, 12]: 100%

Molecule: α1-antitrypsin
- Inhibition (%) [8]: 23.5%
- Inhibition (%) [9]: 66.3%

Molecule: CC(C)[C@H](NC(=O)[C@H](CCCNC(=N)N)NC(=O)N[C@@H](Cc1ccccc1)C(=O)O)C(=O)N[C@H](C=O)CCCNC(=N)N [Antipain, antipain] ({Phe-CO}-Arg-Val-Arg-aldehyde)
- Inhibition (%) Tryptase (derived from rat mast cell) ([2]; 10 µM): 98.2%
- Inhibition of trypsin-like enzyme (in words) (trypsin-like enzyme [3]): inhibited
- inhibition at 10 µM (trypsin-like enzyme [3]): 78.1%
- inhibition at 10 µM [4]: 11.1%

Molecule: Cc1cc(=O)oc2cc(NC(=O)[C@@H]3CCCN3C(=O)CNC(=O)[C@H](CC(C)C)NC(=O)[C@@H]3CCCN3C(=O)CNC(=O)CCC(=O)O)ccc12 [Suc-Gly-Pro-Leu-Gly-Pro-MCA] (Suc-GPLGP-{AMC})
- Substrate digestion ratio (%) Trypsin-like enzyme pH 8.6 (trypsin-like enzyme [6]): 0%
- Substrate digestion ratio (%) Neutrophile elastase pH 8.6 [7, 12]: 0%

Molecule: human neutrophile elastase (from UniProt P08246) (enzyme)
- Substrate digestion ratio (%) [10]: 0%
- Substrate digestion ratio (%) (Boc-Phe-Ser-Arg-MCA): 0.4%
- Substrate digestion ratio (%) (Boc-Gln-Ala-Arg-MCA): 0.3%
- Substrate digestion ratio (%) (Boc-Val-Pro-Arg-MCA): 0.2%
- Substrate digestion ratio (%) (Boc-Val-Leu-Lys-MCA): 0.1%
- Substrate digestion ratio (%) (Suc-Ala-Ala-Pro-Phe-MCA): 0.1%
- Substrate digestion ratio (%) (Boc-Ile-Gln-Gly-Arg-MCA): 0.3%
- Substrate digestion ratio (%) (Suc-Ala-Pro-Ala-MCA): 100%
- Substrate digestion ratio (%) (Boc-Gln-Gly-Arg-MCA): 0.2%

Molecule: Cc1cc(=O)oc2cc(NC(=O)[C@@H](N)CC(C)C)ccc12 [Leu-MCA]
- Substrate digestion ratio (%) Trypsin-like enzyme pH 8.6 (trypsin-like enzyme [6]): 0%
- Substrate digestion ratio (%) Neutrophile elastase pH 8.6 [7, 12]: 0.2%

Molecule: fibrinogen
- Digestion of natural substrate by trypsin-like enzyme (trypsin-like enzyme [1]): specifically digested; also recorded: digests

Molecule: Cc1cc(=O)oc2cc(NC(=O)[C@H](Cc3ccccc3)NC(=O)[C@@H]3CCCN3C(=O)[C@H](C)NC(=O)[C@H](C)NC(=O)CCC(=O)O)ccc12 [Suc-Ala-Ala-Pro-Phe-MCA] (Suc-AAPF-{AMC})
- Substrate digestion ratio (%) Rat mast cell Tryptase pH 8.6 [5]: 2.0%
- Substrate digestion ratio (%) Trypsin-like enzyme pH 8.6 (trypsin-like enzyme [6]): 0%
- Substrate digestion ratio (%) Neutrophile elastase pH 8.6 [7]: 0.1%

Molecule: Cc1cc(=O)oc2cc(NC(=O)[C@H](CCCCN)NC(=O)[C@H](CC(C)C)NC(=O)[C@@H](NC(=O)OC(C)(C)C)C(C)C)ccc12 [Boc-Val-Leu-Lys-MCA] (Boc-Val-Leu-Lys-{AMC})
- Substrate digestion ratio (%) Rat mast cell Tryptase pH 8.6 [5]: 6.1%
- Substrate digestion ratio (%) Trypsin-like enzyme pH 8.6 (trypsin-like enzyme [6]): 3.9%
- Substrate digestion ratio (%) Neutrophile elastase pH 8.6 [7, 12]: 0.1%

Molecule: CC(=O)N[C@@H](CC(C)C)C(=O)N[C@@H](CC(C)C)C(=O)N[C@H](C=O)CCCNC(=N)N [Leupeptin, leupeptin]
- Inhibition (%) Tryptase (derived from rat mast cell) ([2]; 10 µM): 100%
- Inhibition of trypsin-like enzyme (in words) (trypsin-like enzyme [3]): inhibited
- inhibition at 10 µM (trypsin-like enzyme [3]): 82.5%
- inhibition at 10 µM [4]: 0%

Molecule: Cc1cc(=O)oc2cc(NC(=O)[C@H](CCCNC(=N)N)NC(=O)[C@H](C)NC(=O)[C@H](CCC(N)=O)NC(=O)OC(C)(C)C)ccc12 [Boc-Gln-Ala-Arg-MCA] (Boc-Gln-Ala-Arg-{AMC})
- Substrate digestion ratio (%) Trypsin-like enzyme pH 8.6 (trypsin-like enzyme [6]): 52.2%
- Substrate digestion ratio (%) Neutrophile elastase pH 8.6 [7, 12]: 0.3%

Molecule: α-1-antitrypsin: a blood protease inhibitor; also used as natural substrate
- Inhibition (%) Tryptase (derived from rat mast cell) ([2]; 10 µM): 66.3%
- Inhibition of trypsin-like enzyme (in words) (trypsin-like enzyme [3]; [11]): inhibited
- Inhibition (%) Trypsin-like protease (human) (trypsin-like enzyme [3]; inhibitor 10 μM): 23.5%
- Digestion of natural substrate by trypsin-like enzyme (trypsin-like enzyme [1]): does not digest
- Digestion of natural substrate by trypsin-like enzyme (trypsin-like enzyme [1]; listed as al-antitrypsin): not digested

Molecule: Cc1cc(=O)oc2cc(NC(=O)[C@H](CCCNC(=N)N)NC(=O)[C@H](CO)NC(=O)[C@H](Cc3ccccc3)NC(=O)OC(C)(C)C)ccc12 [Boc-Phe-Ser-Arg-MCA] (Boc-Phe-Ser-Arg-{AMC})
- Substrate digestion ratio (%) Rat mast cell Tryptase pH 8.6 [5]: 100%
- Substrate digestion ratio (%) Trypsin-like enzyme pH 8.6 (trypsin-like enzyme [6]): 100%
- Substrate digestion ratio (%) Neutrophile elastase pH 8.6 [7, 12]: 0.4%

Molecule: Cc1cc(=O)oc2cc(NC(=O)[C@H](CCCNC(=N)N)NC(=O)CNC(=O)[C@H](CCC(N)=O)NC(=O)OC(C)(C)C)ccc12 [Boc-Gln-Gly-Arg-MCA] (Boc-Gln-Gly-Arg-{AMC})
- Substrate digestion ratio (%) Rat mast cell Tryptase pH 8.6 [5]: 4.6%
- Substrate digestion ratio (%) Trypsin-like enzyme pH 8.6 (trypsin-like enzyme [6]): 13.8%
- Substrate digestion ratio (%) Neutrophile elastase pH 8.6 [7, 12]: 0.2%

Molecule: rat mast cell-derived tryptase (from UniProt P27435) (enzyme)
- Substrate digestion ratio (%) (Boc-Phe-Ser-Arg-MCA): 100%
- Substrate digestion ratio (%) (Boc-Val-Pro-Arg-MCA): 50.6%
- Substrate digestion ratio (%) (Boc-Val-Leu-Lys-MCA): 6.1%
- Substrate digestion ratio (%) (Suc-Ala-Ala-Pro-Phe-MCA): 2%
- Substrate digestion ratio (%) (Boc-Ile-Gln-Gly-Arg-MCA): 149%
- Substrate digestion ratio (%) (Boc-Gln-Gly-Arg-MCA): 4.6%

Molecule: CC(C)C[C@@H](N)[C@H](O)C(=O)N[C@H](C(=O)N[C@H](C(=O)N[C@@H](CC(=O)O)C(=O)O)C(C)C)C(C)C [Amastatin, amastatin]
- Inhibition (%) Tryptase (derived from rat mast cell) ([2]; inhibitor 10 μM): 6.6%
- Inhibition of trypsin-like enzyme (in words) (trypsin-like enzyme [3]; [11]): not inhibited
- inhibition at 10 µM (trypsin-like enzyme [3]; inhibitor 10 μM): 0%
- inhibition at 10 µM ([4]; inhibitor 10 μM): 67.6%

Molecule: Cc1cc(=O)oc2cc(NC(=O)[C@H](CCCNC(=N)N)NC(=O)[C@@H]3CCCN3C(=O)[C@@H](NC(=O)OC(C)(C)C)C(C)C)ccc12 [Boc-Val-Pro-Arg-MCA] (Boc-Val-Pro-Arg-{AMC})
- Substrate digestion ratio (%) Rat mast cell Tryptase pH 8.6 [5]: 50.6%
- Substrate digestion ratio (%) Trypsin-like enzyme pH 8.6 (trypsin-like enzyme [6]): 74.6%
- Substrate digestion ratio (%) Neutrophile elastase pH 8.6 [7, 12]: 0.2%

Molecule: trypsin-like enzyme isolated from cough phlegm of a patient suffering from a chronic respiratory apparatus disease
- Substrate digestion ratio (%) [10]: 0%
- Substrate digestion ratio (%) (Boc-Phe-Ser-Arg-MCA): 100%
- Substrate digestion ratio (%) (Boc-Gln-Ala-Arg-MCA): 52.2%
- Substrate digestion ratio (%) (Boc-Val-Pro-Arg-MCA): 74.6%
- Substrate digestion ratio (%) (Boc-Val-Leu-Lys-MCA): 3.9%
- Substrate digestion ratio (%) (Suc-Ala-Ala-Pro-Phe-MCA): 0%
- Substrate digestion ratio (%) (Boc-Ile-Gln-Gly-Arg-MCA): 13.1%
- Substrate digestion ratio (%) (Suc-Ala-Pro-Ala-MCA): 0%
- Substrate digestion ratio (%) (Boc-Gln-Gly-Arg-MCA): 13.8%

Molecule: O=S(=O)(F)Cc1ccccc1 [PMSF, phenylmethylsulfonyl fluoride]
- Inhibition of trypsin-like enzyme (in words) (trypsin-like enzyme [3]): inhibited
- Inhibition (%) Trypsin-like protease (human) (trypsin-like enzyme [3]; 1000 µM): 100%
- Inhibition (%) Neutrophile elastase (human) ([4]; 1000 µM): 93.6%

Molecule: elastinol
- Inhibition (%) Tryptase (derived from rat mast cell) ([2]; inhibitor 10 μM): 53.0%
- Inhibition of trypsin-like enzyme (in words) (trypsin-like enzyme [3]; [11]): not inhibited
- Inhibition (%) Trypsin-like protease (human) (trypsin-like enzyme [3]; inhibitor 10 μM): 0%
- Inhibition (%) Neutrophile elastase (human) ([4]; inhibitor 10 μM): 0%

Reference: patent US5804410A, “Nucleic acid sequence encoding trypsin-like enzyme and process for producing the enzyme” (Teijin Limited, priority 1994, dated 1998)
